According to patent US8372967B2, “Compounds and methods for modulating expression of GCCR” (Isis Pharmaceuticals, Inc., priority 2006, dated 2013):
Strand notation (5' to 3'): a small letter for the sugar, then the base; units joined by * are phosphorothioate-linked, units joined directly phosphodiester-linked; [ ] holds rarer units or linkages, { } end groups; capitals alone tell only the bases. e = 2'-O-(2-methoxyethyl) (MOE); [5mC] = 5-methylcytosine; d = 2'-deoxy (DNA)

How the values were obtained:
SGLT2 mRNA = SGLT2 mRNA in kidney of Balb/c mice, twenty 1-10-1 MOE gapmers, PPS 534 and PPS 553 (Table 74); assay type: in vivo, mouse; details: i.p. 350 nmol/kg twice per week for two weeks
Protocol: Twenty 1-10-1 MOE gapmers that are complementary to human/monkey/mouse/rat SGLT2 were designed, synthesized and tested in vivo for suppression of SGLT2 mRNA levels in kidney. Data are averages from two experiments in which male 6-week old Balb/c mice were administered intraperitoneal injections of 350 nmol/kg of oligonucleotide, twice per week, over a period of two weeks (a total of four injections). Mice were sacrificed 48 hours following the last administration and evaluated for SGLT2 mRNA levels in kidney. SGLT2 mRNA levels were determined by quantitative real-time PCR analysis according to standard procedures, using two different PCR primer probe sets, primer probe set (PPS) 534 and PPS 553. SGLT2 mRNA levels were normalized to cyclophilin mRNA levels, which were also measured by quantitative real-time PCR.

PCSK9 mRNA [1] = assay: Dose-dependent antisense inhibition of PCSK9 in Hep3B cells, EC50 (Table 76); assay type: cell-based, human
Protocol: (§1) When cells reached appropriate confluency, they were treated with oligonucleotide using LIPOFECTIN® as described. […] Cells were treated and data were obtained in duplicate or triplicate. […] Cells were harvested 16-24 hours after oligonucleotide treatment.
Short antisense compounds targeted to a PCSK9 nucleic acid were tested in a dose response experiment Hep3B cells. After the treatment period, RNA was isolated from the cells and PCSK9 mRNA levels were measured by quantitative real-time PCR, as described herein. PCSK9 mRNA levels were normalized to cyclophilin mRNA levels, as measured by real-time PCR using a cyclophilin-specific primer probe set. Results are presented as percent inhibition of PCSK9, relative to untreated control cells. […] As illustrated in the following table, PCSK9 mRNA levels were reduced in a dose-dependent manner.

PCSK9 mRNA [2] = assay type: cell-based, human; details: Hep3B cells, 100 nM, relative to untreated control cells; for % Inhib: 0 = no reduction observed
Protocol: as §1
Prior to quantitative PCR analysis, primer-probe sets specific to the target gene being measured were evaluated for their ability to be “multiplexed” with a GAPDH amplification reaction. After isolation the RNA is subjected to sequential reverse transcriptase (RT) reaction and real-time PCR, both of which are performed in the same well. RT and PCR reagents were obtained from Invitrogen Life Technologies (Carlsbad, Calif.). […] The RT reaction was carried out by incubation for 30 minutes at 48° C. Following a 10 minute incubation at 95° C. to activate the PLATIN 9M® Taq, 40 cycles of a two-step PCR protocol were carried out: 95° C. for 15 seconds (denaturation) followed by 60° C. for 1.5 minutes (annealing/extension).
170 μL of RiboGreen® working reagent (RiboGreen® reagent diluted 1:350 in 10 mM Tris-HCl, 1 mM EDTA, pH 7.5) was pipetted into a 96-well plate containing 30 μL purified cellular RNA. The plate was read in a CytoFluor® 4000 (PE Applied Biosystems) with excitation at 485 nm and emission at 530 nm.
Short antisense compounds targeted to a PCSK9 nucleic acid were tested for their effects on PCSK9 mRNA in vitro. The Isis No, gapmer motif and SEQ ID NO of each short antisense compound are shown again in Table 75. Cultured Hep3B cells were treated with 100 nM of short antisense compound. 5-10-5 MOE gapmers targeted to a PCSK9 nucleic acid were used as positive controls. After the treatment period, RNA was isolated from the cells and PCSK9 mRNA levels were measured by quantitative real-time PCR, as described herein. PCSK9 mRNA levels were adjusted according to total RNA content as measured by RIBOGREEN®. Results are presented in Table 75 as percent inhibition of PCSK9 (% Inhib), relative to untreated control cells.

[3] = primer probe set 534, normalized to cyclophilin
[4] = primer probe set 553, normalized to cyclophilin

370717 (antisense eT*dA*dG*d[5mC]*d[5mC]*dA*d[5mC]*d[5mC]*dA*dA*d[5mC]*eT) [compound 370717]
% change in SGLT2 mRNA vs saline (SGLT2 mRNA; [3]): −84.4 % Saline
% change in SGLT2 mRNA vs saline (SGLT2 mRNA; [4]): −84.3 % Saline

379697 (e[5mC]*dT*dG*dG*d[5mC]*dA*dT*dG*dA*d[5mC]*d[5mC]*eA; antisense) [compound 379697]
% change in SGLT2 mRNA vs saline (SGLT2 mRNA; [3]): −32.0 % Saline
% change in SGLT2 mRNA vs saline (SGLT2 mRNA; [4]): −46.3 % Saline

379696 (e[5mC]*dA*dG*d[5mC]*dT*dT*d[5mC]*dA*dG*dG*dT*eA; antisense) [compound 379696]
% change in SGLT2 mRNA vs saline (SGLT2 mRNA; [3]): −24.6 % Saline
% change in SGLT2 mRNA vs saline (SGLT2 mRNA; [4]): −36.2 % Saline

379685 (antisense eT*dG*dA*d[5mC]*d[5mC]*dA*dG*d[5mC]*dA*dG*dG*eA) [compound 379685]
% change in SGLT2 mRNA vs saline (SGLT2 mRNA; [3]): −10.3 % Saline
% change in SGLT2 mRNA vs saline (SGLT2 mRNA; [4]): −20.5 % Saline

379699 (eG*dG*d[5mC]*dA*dT*dG*dA*dG*d[5mC]*dT*dT*e[5mC]) [compound 379699]
% change in SGLT2 mRNA vs saline (SGLT2 mRNA; [3]): −83.5 % Saline
% change in SGLT2 mRNA vs saline (SGLT2 mRNA; [4]): −85.8 % Saline

400331 (antisense eG*e[5mC]*d[5mC]*dA*d[5mC]*dG*dT*dG*dG*dG*d[5mC]*dA*eG*e[5mC]) [compound 400331]
% Inhibition (PCSK9 mRNA [1]; 5 nM): 29%
% Inhibition (PCSK9 mRNA [1]; 10 nM): 40%
% Inhibition (PCSK9 mRNA [1]; 20 nM): 47%
% Inhibition (PCSK9 mRNA [1]; 40 nM): 63%
% Inhibition (PCSK9 mRNA [1]; 80 nM): 75%
% Inhibition (PCSK9 mRNA [1]; 160 nM): 82%
% Inhibition Range (PCSK9 mRNA [2]): 30-40%
% Inhib (PCSK9 mRNA [2]): 35%

379691 (antisense eA*dG*dA*dT*d[5mC]*dT*dT*dG*dG*dT*dG*eA) [compound 379691]
% change in SGLT2 mRNA vs saline (SGLT2 mRNA; [3]): −35.0 % Saline
% change in SGLT2 mRNA vs saline (SGLT2 mRNA; [4]): −48.6 % Saline

379687 (antisense eG*dA*dT*dG*dT*dT*dG*d[5mC]*dT*dG*dG*e[5mC]) [compound 379687]
% change in SGLT2 mRNA vs saline (SGLT2 mRNA; [3]): −47.1 % Saline
% change in SGLT2 mRNA vs saline (SGLT2 mRNA; [4]): −52.1 % Saline

400352 (antisense e[5mC]*eA*d[5mC]*d[5mC]*d[5mC]*dT*d[5mC]*dA*d[5mC]*d[5mC]*d[5mC]*d[5mC]*e[5mC]*eA) [compound 400352]
% Inhibition (PCSK9 mRNA [1]; 5 nM): 7%
% Inhibition (PCSK9 mRNA [1]; 10 nM): 16%
% Inhibition (PCSK9 mRNA [1]; 20 nM): 40%
% Inhibition (PCSK9 mRNA [1]; 40 nM): 44%
% Inhibition (PCSK9 mRNA [1]; 80 nM): 63%
% Inhibition (PCSK9 mRNA [1]; 160 nM): 64%
% Inhibition Range (PCSK9 mRNA [2]): 20-30%
% Inhib (PCSK9 mRNA [2]): 29%

379692 (antisense eT*dG*dT*dT*d[5mC]*d[5mC]*dA*dG*d[5mC]*d[5mC]*d[5mC]*eA) [compound 379692]
% change in SGLT2 mRNA vs saline (SGLT2 mRNA; [3]): −88.1 % Saline
% change in SGLT2 mRNA vs saline (SGLT2 mRNA; [4]): −88.5 % Saline

379688 (antisense e[5mC]*d[5mC]*dA*dA*dG*d[5mC]*d[5mC]*dA*d[5mC]*dT*dT*eG) [compound 379688]
% change in SGLT2 mRNA vs saline (SGLT2 mRNA; [3]): −62.6 % Saline
% change in SGLT2 mRNA vs saline (SGLT2 mRNA; [4]): −70.4 % Saline

400327 (antisense eG*eT*d[5mC]*d[5mC]*d[5mC]*d[5mC]*dA*dA*dA*dG*dT*d[5mC]*e[5mC]*e[5mC]) [compound 400327]
% Inhibition (PCSK9 mRNA [1]; 5 nM): 5%
% Inhibition (PCSK9 mRNA [1]; 10 nM): 37%
% Inhibition (PCSK9 mRNA [1]; 20 nM): 23%
% Inhibition (PCSK9 mRNA [1]; 40 nM): 49%
% Inhibition (PCSK9 mRNA [1]; 80 nM): 43%
% Inhibition (PCSK9 mRNA [1]; 160 nM): 55%
% Inhibition Range (PCSK9 mRNA [2]): 30-40%
% Inhib (PCSK9 mRNA [2]): 36%

379689 (antisense eA*dG*dA*dG*d[5mC]*dG*d[5mC]*dA*dT*dT*d[5mC]*e[5mC]) [compound 379689]
% change in SGLT2 mRNA vs saline (SGLT2 mRNA; [3]): −17.5 % Saline
% change in SGLT2 mRNA vs saline (SGLT2 mRNA; [4]): −30.4 % Saline
